US11547681B2, “N-acylethanolamide derivatives and uses thereof” (ELIEM THERAPEUTICS, INC., priority 2016, dated 2023)

What was measured:
[1] = Pharmacokinetics of PEA after intravenous administration in male Sprague-Dawley rats; type: in vivo, Sprague-Dawley rat; settings: for AUC(0-t): AUClast; for MRT last: MRTlast
Protocol: Rats were housed one per cage. […] Each study group was dosing in triplicate.
Samples were maintained chilled throughout processing.
Clearance (CL) was calculated from dose/AUC.

patients with pain = settings: meta-analysis of 12 PEA pain studies; placebo 21%; cited from earlier work
in vivo = settings: male, Sprague-Dawley, rat, plasma, po, 10 mg/kg
Protocol: PEA was also dosed intravenously at 1 mg/kg. Blood samples were collected up to 8 hours post-dose, and PEA and PEA-prodrug plasma concentrations were determined with a qualified LC-MS/MS method. Pharmacokinetic analysis was conducted by a non-compartmental model using Phoenix WinNonlin v.6.4 software.
The IV dosing solution was prepared fresh on the day of dosing at 0.5 mg/mL in a vehicle comprised of 10% solutol HS15, 10% n-methylpyrrolidone (NMP), 10% polyethylene glycol 400 (PEG400), and 70% water. For PO dosing, torpac capsules were loaded with an appropriate amount of PEA, PEA-prodrug, or normast powder. […] The prodrug dose in group 5 was the maximum amount of powder that would fit into a single capsule.
The pharmacokinetics of PEA and the PEA-prodrug were evaluated in fasted male Sprague-Dawley rats. Rats were housed one per cage. Each rat was fitted with a jugular vein cannula (JVC) for blood collection. Rats intended for IV dosing were fitted with an additional JVC for dosing. Each study group was dosing in triplicate. Rats were fasted for a minimum of twelve hours prior to dosing. Food was returned at four hours post dosing. Animals had free access to water throughout the study.
Blood samples (˜300 μL) were collected from the rats via a JVC and placed into chilled polypropylene tubes containing sodium heparin as an anticoagulant, and 30 μL of 0.5 M citric acid. Samples were maintained chilled throughout processing. Blood samples were centrifuged at 4° C. and 3,000 g for 5 minutes. Plasma (˜150 μL) was then transferred to a chilled, labeled polypropylene tube containing 15 μL of 10% formic acid, placed on dry ice, and stored in a freezer maintained at −60° C. to −80° C.
Pharmacokinetic parameters were determined with Phoenix WinNonlin (v6.4) software using a non-compartmental model. Maximum plasma concentrations (C0) after IV dosing were estimated by extrapolation of the first two time points back to t=0. […] Area under the time concentration curve (AUC) was calculated using the linear trapezoidal rule with calculation to the last quantifiable data point, and with extrapolation to infinity if applicable. […] Mean residence time, MRT, was calculated by dividing the area under the moment curve (AUMC) by the AUC. Clearance (CL) was calculated from dose/AUC. Steady-state volume of distribution (Vss) was calculated from CL*MRT (mean residence time). Bioavailability was determined by dividing the individual PO dose normalized AUClast values by the average IV AUClast value. Any samples below the limit of quantitation were treated as zero for pharmacokinetic data analysis.
Measured concentrations of PEA in plasma samples were corrected by subtracting the concentration of PEA measured in the pre-dose samples. […] Any corrected values that were negative are reported as not determined (ND).

[2] = male, Sprague-Dawley, rat, in vivo, iv, 1 mg/kg, Mean
[3] = male, Sprague-Dawley, rat, in vivo, iv, 1 mg/kg, individual rats
[4] = male, Sprague-Dawley, rat, in vivo, iv, 1 mg/kg, Plasma concentration of PEA, Mean
[5] = male, Sprague-Dawley, rat, in vivo, iv, 1 mg/kg, Plasma concentration of PEA, individual rats

For `CCCCCCCCCCCCCCCC(=O)NCCO` [PEA, palmitoylethanolamide], the “C0, Mean” value ([1]; PEA IV 1 mg/kg, extrapolated to t = 0) was 0.251 µg/mL, the Tmax ([1]; male, Sprague-Dawley, rat, in vivo, iv, 1 mg/kg) was 0 h and the AUC(0-t) [1, 2] was 0.0621 µg·h/mL. The AUC(0-t) [1, 3] was 0.0533 µg·h/mL, the AUC(0-inf) [1, 2] was 0.0684 µg·h/mL and the AUC(0-inf) [1, 3] was 0.0576 µg·h/mL. For the same molecule, the clearance ([1]; male, Sprague-Dawley, rat, in vivo, iv, 1 mg/kg, CL (average clearance rate), Mean) was 15.1 L/h/kg, the clearance ([1]; male, Sprague-Dawley, rat, in vivo, iv, 1 mg/kg, CL, individual rats) was 17.4 L/h/kg and the MRT last [1, 2] was 24.1 min. It also gave an MRT last [1, 3] of 23.9 min, a concentration at 0.083 hr [1, 4] of 0.144 µg/mL and a concentration at 0.25 hr [1, 4] of 0.0482 µg/mL. The concentration at 0.5 hr [1, 4] was 0.0312 µg/mL, the concentration at 1 hr [1, 4] was 0.0112 µg/mL and the concentration at 2 hr [1, 4] was 0.00691 µg/mL. The concentration at 0.083 hr [1, 5] was 0.122 µg/mL, the concentration at 0.25 hr [1, 5] was 0.0472 µg/mL and the concentration at 0.5 hr [1, 5] was 0.0275 µg/mL. The concentration at 2 hr [1, 5] was 0.0052 µg/mL, the Vd ([1]; male, Sprague-Dawley, rat, in vivo, iv, 1 mg/kg, Vss (average volume of distribution), Mean) was 9.12 ± 0.832 L/kg and the Vd ([1]; male, Sprague-Dawley, rat, in vivo, iv, 1 mg/kg, Vss, individual rats) was 10 L/kg. The half-life ([1]; male, Sprague-Dawley, rat, in vivo, iv, 1 mg/kg, t1/2 (average half-life), Mean) was 35.8 ± 9.9 min, the half-life ([1]; male, Sprague-Dawley, rat, in vivo, iv, 1 mg/kg, t1/2, individual rats) was 33.8 min and the “treated patients achieving VAS scores <=3” value (patients with pain) was 67%. It also gave a Cmax (in vivo) of 0.0053 µg/mL, a Tmax (in vivo) of 120 min and a concentration at 1 hr (in vivo) of 0.00234 µg/mL. The concentration at 2 hr (in vivo) was 0.0053 µg/mL.
